Test results as given in article PMC11375786, “Induction of Paraptotic Cell Death in Cancer Cells by Triptycene–Peptide Hybrids and the Revised Mechanism of Paraptosis II” (Biochemistry, 2024).
Like-named read-outs stand apart in the source and are kept apart here. Peptide text beside a SMILES is read from it. * marks the point of attachment. Cbz = O=C(OCc1ccccc1)*; CH2F = FC*

Experiments:
[1] = tested on: intracellular Zn^2+ in Jurkat cells; experiment: Zinquin fluorescence microscopy in Jurkat cells; format: cell-based; conditions: 4 2.5 μM 1 h; celastrol 5 μM, etoposide 5 μM, cisplatin 100 μM 24 h
Procedure: (§1) Jurkat cells (2.0 × 10^5 cells) were treated with 4 (2.5 μM), etoposide (5 μM), cisplatin (100 μM) and celastrol (5 μM) and stained with Mito-FerroGreen (a probe for labile Fe^2+ in mitochondria) (5 μM) and zinquin (a probe for intracellular Zn^2+) (25 μM). The cell images were observed via fluorescence microscopy.

[2] = tested on: Ca^2+ concentrations in mitochondria and cytosol in A549 cells; experiment: Rhod-2/AM and Rhod-4/AM emission (mitochondrial and cytosolic Ca2+) in A549 cells; format: cell-based, human; conditions: 4 10 μM 1 h; celastrol 100 μM 2–6 h
Procedure: (§2) Jurkat, HeLa-S3, and A549 cells (2.0 × 10^5 cells) were preincubated with Rhod-2/AM (final concentration = 5 μM) or Rhod-4/AM (final concentration = 5 μM) in medium under 5% CO2 at 37 °C for 30 min and then treated with 4 (final concentration = 2.5, 5, or 10 μM) for 0, 15, 30, 45, and 60 min. HeLa-S3 and A549 cells were detached by accutase, immediately after which the cells were suspended in 300 μL of cell culture medium and then analyzed on a flow cytometer (FACS Calibur cytometer, Becton), and the data were analyzed using the FlowJo software (FlowJo, LCC).
(§3) Jurkat, HeLa-S3, A549, and IMR90 cells (2.0 × 10^5 cells) were stained with Rhod-2/AM or Rhod-4/AM (final concentration = 5 μM) for 30 min at 37 °C under 5% CO2. The cells were washed with PBS and were treated with 4 (final concentration = 2.5, 5, or 10 μM) in cell culture medium for 30 and 60 min at 37 °C under 5% CO2. To test the effect of celastrol and cisplatin in HeLa-S3 and A549 cells, the cells were incubated with celastrol (final concentration = 100 μM) and cisplatin (final concentration = 100 μM) for 2–6 h. After washing with PBS, the cells were observed via fluorescence microscopy (BZ-X800, Keyence) using a Greiner CELLview Petri dish (35 × 10 mm^2). Emission images were observed using a TRITC filter (excitation 540 nm, emission 605 nm).
(§4) Jurkat, HeLa-S3, A549, and IMR90 cells (8.0 × 10^4 cells) were incubated with CCCP or 2-APB for 1 h and then stained with Rhod-2/AM or Rhod-4/AM (final concentration = 5 μM) for 30 min at 37 °C under 5% CO2. The cells were washed with PBS and were treated with 4 (final concentration = 2.5, 5, or 10 μM) in PBS for 0–60 min at 37 °C in a microplate reader (ARVO, PerkinElmer). Excitation at 540 nm and emission at 590 nm were used for the measurement of Rhod-2/AM and Rhod-4/AM on the microplate reader.

[3] = tested on: Ca^2+ concentrations in mitochondria and cytosol in HeLa-S3 cells; experiment: Rhod-2/AM and Rhod-4/AM emission (mitochondrial and cytosolic Ca2+) in HeLa-S3 cells; format: cell-based, human; conditions: 4 5 μM 1 h; for Emission of Rhod-2/AM (mitochondrial Ca2+) in HeLa-S3 cells: celastrol or cisplatin 100 μM 2–6 h
Procedure: as §2, §3, §4

A549 cells [4] = experiment: Costaining of ER and mitochondria (ERTracker Red, MitoTracker Green), confocal microscopy, A549 cells; format: cell-based, human; conditions: 4 10 μM, 15 min; celastrol 100 μM
Procedure: (§5) Jurkat, HeLa-S3, A549, and IMR90 cells (2.0 × 10^5 cells) were incubated with 4 (final concentration = 2.5 μM (for Jurkat), 5 μM (for HeLa-S3), 10 μM (for A549) and 5 μM and 50 μM (for IMR90)) in cell culture medium at 37 °C under 5% CO2. After incubation, MitoTracker Green (final concentration = 100 nM (for Jurkat) or 500 nM (for HeLa-S3, A549 and IMR90)), or ERTracker Red (final concentration = 500 nM (for Jurkat) or 1 μM (for HeLa-S3, A549 and IMR90)) were applied for 1 h under the same conditions. After washing with PBS, the cells were observed via confocal fluorescence microscopy (FluoView, FV-1000, Olympus). Excitation at 473 nm and emissions from 485 to 585 nm were used for detecting the MitoTracker Green. Excitation at 559 nm and emissions from 570 to 670 nm were used for detecting the ERTracker Red. Exposure time was 20 μs/pixel.

HeLa-S3 cells [5] = experiment: Costaining of ER and mitochondria (ERTracker Red, MitoTracker Green), confocal microscopy, HeLa-S3 cells; format: cell-based, human; conditions: 4 5 μM, 5 and 10 min; celastrol 100 μM
Procedure: as §5

HeLa-S3 cells [6] = experiment: cells; conditions: read-out: EC50 against HeLa-S3 cells
Procedure: (§6) HeLa S3 cells (human cervical carcinoma) were cultured in Minimum essential medium (MEM) containing 10% FBS, penicillin, and streptomycin. A549 cells (human lung carcinoma) and IMR90 cells (human fetal lung fibroblast) were cultured in Dulbecco’s modified Eagle’s medium (DMEM) with 10% FBS, penicillin, and streptomycin. All cells were cultured at 37 °C under a humidified atmosphere containing 5% CO2.
(§7) Jurkat, HeLa-S3, A549 cells (2.0 × 10^5 cells/mL) and IMR90 cells (1.0 × 10^5 cells/mL) were incubated in the presence of 3–7 for 1 h, and etoposide, cisplatin and celastrol for 24 h (50 μL) in cell culture medium under CO2 at 37 °C in 96-well plates (BD Falcon). MTT reagent (5 mg/mL) in PBS (10 μL) was then added to the cells. After incubation at 37 °C for 4 h, a formazan lysis solution (10% sodium dodecyl sulfate (SDS) in 0.01 N HCl) (100 μL) was added and the resultant solution was incubated overnight under the same conditions, which was followed by measurement of the absorbance at 570 nm using a microplate reader (ARVO, PerkinElmer).

A549 cells [7] = experiment: cells
Procedure: as §6, §7

IMR90 cells = experiment: cells; conditions: read-out: EC50 against IMR90 cells
Procedure: as §6, §7

Jurkat cells [8] = experiment: cells; conditions: read-out: EC50 against Jurkat cells
Procedure: as §6, §7

[9] = tested on: labile Fe^2+ in mitochondria of Jurkat cells; experiment: Mito-FerroGreen fluorescence microscopy in Jurkat cells; format: cell-based; conditions: 4 2.5 μM 1 h; celastrol 5 μM, etoposide 5 μM, cisplatin 100 μM 24 h
Procedure: as §1

A549 cells [10] = experiment: MTT assay of A549 cells treated with 4 or celastrol in the presence of inhibitors; format: cell-based, human; conditions: 4 10 μM 1 h; Z-VAD-fmk 100 μM, necrostatin-1 100 μM, 3-MA 1 mM, CCCP 250 μM, DIDS 250 μM
Procedure: (c) A549 cells: A549 cells (2.0 × 10^5 cells/mL) in DMEM medium with 10% FBS were pretreated with the inhibitors (3-MA (1 mM), and DIDS (250 μM)) for 3 h or pretreated with other inhibitors (Z-VAD-fmk (100 μM), necrostatin-1 (100 μM), CCCP (250 μM), and FCCP (10 μM)) for 1 h under 5% CO2 at 37 °C. After incubation, 4 (final concentration = 10 μM) was added to the cell suspension, which was then incubated for 1 h at 37 °C. Subsequent procedures were the same as those used for the Jurkat cells.

HeLa-S3 cells [11] = experiment: MTT assay of HeLa-S3 cells treated with 4 or celastrol in the presence of inhibitors; format: cell-based, human; conditions: 4 5 μM 1 h; Z-VAD-fmk 100 μM, necrostatin-1 100 μM, 3-MA 5 mM, CCCP 160 μM, DIDS 75 or 100 μM
Procedure: (b) HeLa-S3 cells: HeLa-S3 cells (2.0 × 10^5 cells/mL) in MEM medium with 10% FBS were pretreated with the inhibitors (3-MA (5 mM), and DIDS (75 or 100 μM)) for 3 h or pretreated with other inhibitors (Z-VAD-fmk (100 μM), necrostatin-1 (100 μM), CCCP (160 μM), and FCCP (80 μM)) for 1 h under 5% CO2 at 37 °C. After the incubation, 4 (final concentration = 5 μM) was added to the cell suspension, which was then incubated for 1 h at 37 °C. Subsequent procedures were the same as those used for the Jurkat cells.

Jurkat cells [12] = experiment: MTT assay of Jurkat cells treated with 4 or celastrol in the presence of inhibitors; format: cell-based; conditions: DIDS 75 or 100 μM, RuRed 75 μM; for Inhibition of 4-induced cell death in Jurkat cells: 4 2.5 μM 1 h, Z-VAD-fmk 15 μM, necrostatin-1 30 μM, 3-MA 10 μM, CCCP 40 μM, 2-APB 50 or 100 μM
Procedure: (a) Jurkat cells: Jurkat cells (2.0 × 10^5 cells/mL) in RPMI 1640 medium with 10% FBS were pretreated with the inhibitors (Z-VAD-fmk (final concentration = 15 μM), necrostatin-1 (final concentration = 30 μM), 3-MA (final concentration = 10 μM), and DIDS (75 or 100 μM)) for 3 h or pretreated with other inhibitors (CCCP (40 μM), FCCP (40 μM), 2-APB (50 or 100 μM) and RuRed (75 μM)) for 1 h under 5% CO2 at 37 °C. After incubation, 4 (final concentration = 2.5 μM) was added to the cell suspension, which was then incubated for 1 h at 37 °C. To test the effect of celastrol, the cells were pretreated with the aforementioned inhibitors and then incubated with celastrol (5 μM) for 24 h. MTT reagent (5 mg/mL) in PBS (10 μL) was added to the cells. After incubation at 37 °C for 4 h, a formazan lysis solution (10% sodium dodecyl sulfate (SDS) in 0.01 N HCl) (100 μL) was added, and the resultant solution was incubated overnight under the same conditions, followed by measurement of the absorbance at 570 nm using a microplate reader (ARVO, PerkinElmer).

Jurkat cells [13] = experiment: Costaining of ER and mitochondria (ERTracker Red, MitoTracker Green), confocal microscopy, Jurkat cells; format: cell-based; conditions: 4 2.5 μM, CCCP 40 μM
Procedure: as §5

[14] = Homo sapiens, A549, read-out: EC50 against A549 cells
[15] = MTT, incubation 24 h (etoposide, cisplatin, celastrol)

Structure (SMILES)	Emission from zinquin (intracellular free Zn2+) in Jurkat cells [1]	Emission from Mito-FerroGreen (free Fe2+ in mitochondria) in Jurkat cells [9]	Inhibition of 4-induced cell death in A549 cells (A549 cells [10])	Inhibition of 4-induced cell death in HeLa-S3 cells (HeLa-S3 cells [11])	Inhibition of 4-induced cell death in Jurkat cells (Jurkat cells [12])	also measured
CC1=C(O)C(=O)C=C2C1=CC=C1[C@@]2(C)CC[C@@]2(C)[C@@H]3C[C@](C)(C(=O)O)CC[C@]3(C)CC[C@]12C [celastrol]	negligibly enhanced	negligibly enhanced	–	–	–	Emission of Rhod-2/AM (mitochondrial Ca2+) in A549 cells [2]: mitochondrial Ca^2+ overload; Emission of Rhod-4/AM (cytosolic Ca2+) in A549 cells [2]: negligibly changed; Emission of Rhod-4/AM (cytosolic Ca2+) in HeLa-S3 cells ([3]; celastrol 100 μM 2–6 h): mitochondrial and cytoplasmic Ca^2+ overload; Emission of Rhod-2/AM (mitochondrial Ca2+) in HeLa-S3 cells [3]: mitochondrial and cytoplasmic Ca^2+ overload; Overlap of emission from MitoTracker Green and ERTracker Red in A549 cells (A549 cells [4]): weaker overlap; Overlap of emission from MitoTracker Green and ERTracker Red in HeLa-S3 cells (HeLa-S3 cells [5]): weaker overlap; EC50 (HeLa-S3 cells [6]; Homo sapiens, HeLa S3, 24 h): 22 ± 6 µM; EC50 (A549 cells [7]; [14]): 31 ± 2.2 µM; EC50 (IMR90 cells; Homo sapiens, IMR-90, 24 h): > 25 µM; EC50 (Jurkat cells [8]; Homo sapiens, Jurkat, 24 h): 0.9 ± 0.1 µM
O=S(=O)(O)c1cc(N=C=S)ccc1C=Cc1ccc(N=C=S)cc1S(=O)(=O)O [DIDS, 4,4′-diisothiocyano-2,2′-stilbenedisulfonic acid]	–	–	considerably inhibits	considerably inhibits	considerably inhibits	Inhibition of celastrol-induced cell death in Jurkat cells (Jurkat cells [12]; celastrol 5 μM 24 h, 2-APB 50 μM): did not significantly stop cell death
N#CC(C#N)=NNc1cccc(Cl)c1 [CCCP, carbonyl cyanide 3-chlorophenylhydrazone]	–	–	considerably inhibited	considerably inhibited	considerably inhibited	Inhibition of the 4-induced overlap of emission from MitoTracker Green and ERTracker Red in Jurkat cells (Jurkat cells [13]): considerably inhibited
COC(=O)CC(NC(=O)C(C)NC(=O)C(NC(=O)OCc1ccccc1)C(C)C)C(=O)CF (stereo not drawn) [Z-VAD-fmk, benzyloxycarbonyl-VAD(OMe)-fluoromethylketone] (Cbz-Val-Ala-Asp(OMe)-CH2F; configuration not given here)	–	–	negligibly inhibited	negligibly inhibited	negligibly inhibited	–
CN1C(=O)C(Cc2c[nH]c3ccccc23)NC1=S (stereo not drawn) [necrostatin-1]	–	–	negligibly inhibited	negligibly inhibited	negligibly inhibited	–
N.N.[Cl][Pt][Cl] [cisplatin]	increases in both free-Fe^2+ and free-Zn^2+	increases in both free-Fe^2+ and free-Zn^2+	–	–	–	Emission of Rhod-2/AM (mitochondrial Ca2+) in HeLa-S3 cells [3]: weak enhancement; EC50 (HeLa-S3 cells [6]; [15]): 15 ± 3.4 µM; EC50 (A549 cells [7]; read-out: EC50 against A549 cells, MTT, incubation 24 h (etoposide, cisplatin, celastrol)): > 100 µM; EC50 (IMR90 cells; [15]): > 12.5 µM; EC50 (Jurkat cells [8]; [15]): 5.8 ± 1.4 µM
COc1cc([C@@H]2c3cc4c(cc3[C@@H](O[C@@H]3O[C@@H]5CO[C@@H](C)O[C@H]5[C@H](O)[C@H]3O)[C@H]3COC(=O)[C@H]23)OCO4)cc(OC)c1O [etoposide]	increases in both free-Fe^2+ and free-Zn^2+	increases in both free-Fe^2+ and free-Zn^2+	–	–	–	EC50 (HeLa-S3 cells [6]; Homo sapiens, HeLa S3, 24 h): > 100 µM; EC50 (A549 cells [7]; [14]): > 100 µM; EC50 (IMR90 cells; Homo sapiens, IMR-90, 24 h): > 25 µM; EC50 (Jurkat cells [8]; Homo sapiens, Jurkat, 24 h): 3.1 ± 0.1 µM
Cn1cnc(N)c2ncnc1-2 [3-MA, 3-methyladenine]	–	–	negligibly inhibited	negligibly inhibited	negligibly inhibited	–
